The source of these data is US20200166517A1, “Screening Method for Identification of Neuroprotective Compounds” (Temple University-Of The Commonwealth System of Higher …, priority 2017, published 2020).

SMILES strings stand for the structures. “Also recorded” adds a separate entry of the source.

What all share (assay type): cell-based
Data set [1] concerns JNK3 activation by wtDLK-GFP. Kind of data set: JNK3 activation by wtDLK-GFP in cotransfected HEK293T cells, detected by phosphoJNK antibody. To be noted: HEK293T cells expressing myc-JNK3 plus wtDLK-GFP; vs EtOH vehicle. Here is the method: FIG. 2A: HEK293T cells expressing myc-JNK3 plus wtDLK-GFP were treated with the palmitoylation inhibitor 2-Bromopalmitate (2-Br) or EtOH (vehicle). […] FIG. 2B: HEK293T cells were transfected with myc-JNK3 plus either wtDLK-GFP or a DLK palmitoyl site mutant (DLK-CS-GFP). Only wtDLK-GFP activates JNK3, as detected by phosphoJNK antibody.

In data set [2] the target is T1, DLK-GFP (Homo sapiens, UniProt Q12852).
T1 sequence (Q12852 1-892 isoform Q12852-2): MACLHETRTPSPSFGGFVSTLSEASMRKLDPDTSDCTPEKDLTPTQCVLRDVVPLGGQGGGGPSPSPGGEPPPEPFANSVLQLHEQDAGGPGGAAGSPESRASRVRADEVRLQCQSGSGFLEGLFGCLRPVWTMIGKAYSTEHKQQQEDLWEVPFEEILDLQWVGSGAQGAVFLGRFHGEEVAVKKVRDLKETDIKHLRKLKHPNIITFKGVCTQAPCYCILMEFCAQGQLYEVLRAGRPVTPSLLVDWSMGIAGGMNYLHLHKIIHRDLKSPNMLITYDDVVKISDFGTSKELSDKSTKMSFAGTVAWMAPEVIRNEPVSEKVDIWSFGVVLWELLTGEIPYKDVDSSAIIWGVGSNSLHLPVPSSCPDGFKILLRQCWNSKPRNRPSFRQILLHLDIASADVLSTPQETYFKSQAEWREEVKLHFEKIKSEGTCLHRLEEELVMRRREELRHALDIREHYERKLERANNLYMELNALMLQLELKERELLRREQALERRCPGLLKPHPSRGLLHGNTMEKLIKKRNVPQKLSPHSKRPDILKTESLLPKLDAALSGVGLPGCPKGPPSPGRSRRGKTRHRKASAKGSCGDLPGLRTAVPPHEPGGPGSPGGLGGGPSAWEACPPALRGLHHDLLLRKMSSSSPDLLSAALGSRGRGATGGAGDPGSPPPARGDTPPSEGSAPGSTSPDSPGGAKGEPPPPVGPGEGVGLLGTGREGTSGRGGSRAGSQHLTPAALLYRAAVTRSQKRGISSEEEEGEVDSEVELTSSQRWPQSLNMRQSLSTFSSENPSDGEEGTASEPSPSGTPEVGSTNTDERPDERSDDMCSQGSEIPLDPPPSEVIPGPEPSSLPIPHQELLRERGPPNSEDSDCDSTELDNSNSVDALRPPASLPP
The data set is described as follows: DLK-GFP puncta / membrane localization in transfected HEK293T cells (high-content imaging, ImageXpress). Here is the method:
FIG. 3A: HEK293T cells were transfected with wtDLK-GFP or DLK-CS-GFP and treated 4 h later with 2-Br or vehicle. Top: Live images of GFP fluorescence, acquired 8 h post-transfection. […] FIG. 3B: A subset of cells from FIG. 3A were fixed and immunostained with anti-GFP antibody. Images of GFP fluorescence (n=5 per condition) were analyzed by ImageXpress software. Palmitoylation-dependent differences in number of DLK-GFP puncta are readily detectable.
FIG. 6A depicts HEK293T cells transiently expressing DLK-GFP, fixed and immunostained with antibodies to detect GFP and the Golgi marker GM130. FIG. 6B depicts HEK293T cells, transfected as in FIG. 6A to express either wild type DLK-GFP (DLK-GFP) or a DLK palmitoylation site mutant (C127S-DLK-GFP). […] FIG. 6C depicts results from an experiment in which HEK293T cells were seeded into 12 wells of a 96-well plate and transfected with DLK-GFP and then treated with 2BP or vehicle (6 wells per condition). Cells were fixed in PFA and imaged using an ImageXpress High Content Imaging system to detect GFP signal. Assay quality was determined by calculating the z-prime (z′) for 6 determinations for each of the indicated conditions (z′=S/R, S=[(Mean of Vehicle treated−3×SD)−(Mean of 2BP−3×SD)], R=Vehicle Mean−2BP mean).
(§1) FIG. 7A depicts HEK293T cells co-transfected with DLK-GFP plus mCherry-NLS×3 and then treated with 2BP or vehicle were fixed to detect GFP, mCherry and the nuclear marker DAPI. […] FIG. 7B depicts design of the high-throughput screen for compounds that inhibit DLK-GFP puncta formation. FIG. 7C depicts compounds from the Prestwick Chemical Library™, which were spotted onto 96 well plates at 10 mM per compound in DMSO and diluted in DMEM prior to adding to transfected cells in duplicate at a final concentration of 10 micromolar (similar to the flow chart in FIG. 7B). 16 h later, cells were fixed in 4% PFA and stained with DAPI. High-content imaging was performed using an ImageXPress Image Analysis ‘TransFluor’ and Multi-wavelength scoring (MWS) modules. Data are plotted as total number of puncta (TransFluor Module) per total NLS (MWS module) for each compound. Drugs that decreased the nuclear NLS and/or DAPI markers below 3 times the […] were excluded due to likely toxicity or non-specific effects (plotted in grey). ‘Hits’ were drugs characterised as decreasing all ‘puncta’ readouts by more than 3 times the SD and included in 2 replicates.
(§2) FIG. 8A depicts an experiment in which HEK293T cells transiently transfected with DLK-GFP and mCherry-NLS and subsequently incubated with the indicated concentrations of Ketoconazole or 20 μM 2BP 2 hours post-transfection for 16-18 h. Cells were fixed and stained with DAPI. Scale bar represents 50 μm. FIG. 8B depicts quantified DLK puncta/NLS and nuclear counts (DAPI) from cells transfected as in FIG. 8A and treated with the indicated concentrations of ketoconazole. FIG. 8C depicts an experiment in which transiently transfected HEK293T cells were prepared as in FIG. 8A and palmitoylation (HAM+) was detected using the ABE assay. HAM- sample was generated from an equal fraction of all conditions combined.
In transfected HEK 293T cells, GFP-tagged wild type DLK (wtDLK-GFP) clearly localizes to intracellular membranes (FIG. 3, top). These membranes are distinct from the vesicles reported in neurons (likely due to different trafficking of DLK in non-neuronal cells) and instead overlap with Golgi markers, likely because many mammalian palmitoyl acyltransferases (PATs) localize to the Golgi (Levy, 2011; Ohno, 2006). […] In identically thresholded images, wtDLK-GFP puncta could be readily observed, that were absent in the 2-Br-treated and DLK-CS-GFP images (FIG. 3A, bottom). It was thus reasoned that this palmitoylation-dependent change in DLK localization should be quantifiable using high-content imaging software. […] High-content imaging detection is thus well suited to identify novel pharmacological inhibitors of DLK palmitoylation.

Data set [3] concerns the target T1, DLK-GFP. Kind of data set: Acyl-Biotin Exchange (ABE) palmitoylation assay, DLK-GFP in HEK293T cells.
Excerpt: FIG. 4 depicts an orthogonal assay to confirm mechanism of action (MOA) of HTS Hits. HEK293T cells were transfected with wt-DLK-GFP or DLK-CS-GFP and palmitoyl-proteins were isolated by Acyl-Biotin Exchange (ABE). Palmitoyl-DLK is robustly detected in ABE fractions but no ABE signal is seen from cells treated with 2-Br, or if DLK's palmitoyl-site is mutated. DLK expressed similarly in all conditions. (Holland, 2016)
as §2
HEK293T cells were transiently transfected with FIG. 9A) DLK-GFP, FIG. 9B) GAP43-Myc, FIG. 9C) and untagged PSD95 and incubated with 20 μM 2BP, or with 2.5 μM or 5 μM ketoconazole 2 h post-transfection for 16-18 h. Palmitoylation was detected using the ABE assay (left) and quantified from n=4 determinations per condition (right). HAM- includes an equal fraction of all conditions combined. […]
(§3) If changes in DLK localization observed by high-content imaging are indeed due to altered DLK palmitoylation then this should also be reflected in biochemical assays of DLK palmitoylation levels. Palmitoylation of numerous proteins, including DLK, has been previously monitored using a non-radioactive palmitoylation assay, Acyl-Biotin Exchange (ABE) (Holland, 2016; Thomas, 2012). […] WtDLK-GFP was robustly detected in ABE fractions but was absent from controls in which the essential ABE reagent hydroxylamine (NH2OH) was omitted (FIG. 4). […]

The test system of data set [4] is HEK293T cells. Kind of data set: mCherry-NLS×3 expression and DAPI nuclear signal (toxicity / non-specific effect readout of the screen). To be noted: HEK293T co-transfected with DLK-GFP plus mCherry-NLS×3. The method, then:
as §1

The subject of data set [5] is GAP43-Myc. The data set is described as follows: Acyl-Biotin Exchange (ABE) palmitoylation assay, GAP43-Myc in HEK293T cells. To be noted: 2.5 μM or 5 μM, 2 h post-transfection for 16-18 h, n=4; ANOVA not significant. Here is the method:
(§4) HEK293T cells were transiently transfected with FIG. 9A) DLK-GFP, FIG. 9B) GAP43-Myc, FIG. 9C) and untagged PSD95 and incubated with 20 μM 2BP, or with 2.5 μM or 5 μM ketoconazole 2 h post-transfection for 16-18 h. Palmitoylation was detected using the ABE assay (left) and quantified from n=4 determinations per condition (right). HAM- includes an equal fraction of all conditions combined. […] One-way ANOVA, Kruskal-Wallis post-hoc analysis; FIG. 9A) ANOVA p=0.0214, h=7.692, FIG. 9B) ANOVA not significant, FIG. 9C) ANOVA p=0.0158, h=8.290. Error bars represent SEM.
as §3, with “2012). ABE uses an exchange of thioester-linked acyl modifications (i.e. palmitoylation), for biotin, with the resultant biotinylated proteins being affinity-purified from cell lysates using neutravidin-conjugated beads.” for “2012).”

Data set [6] has as its system PSD95. The data set is described as follows: Acyl-Biotin Exchange (ABE) palmitoylation assay, untagged PSD95 in HEK293T cells. Conditions: 2.5 μM or 5 μM, 2 h post-transfection for 16-18 h, n=4; ANOVA p=0.0158. Here is the method: as §4
as §3, with “2012). ABE uses an exchange of thioester-linked acyl modifications (i.e. palmitoylation), for biotin, with the resultant biotinylated proteins being affinity-purified from cell lysates using neutravidin-conjugated beads.” for “2012).”

The test system of data set [7] is phospho-cJun. Kind of data set: DLK-mediated phospho-cJun activation after NGF withdrawal in DRG neurons (Western blot). Conditions: DRG neurons DIV 7, 2.5 μM overnight pretreatment, 2.5 h NGF withdrawal; Bonferroni post-test p<0.01. Here is the method:
FIG. 10A depicts an experiment in which dorsal Root Ganglion (DRG) neurons were pretreated at 7 Days in vitro (DIV 7) with 2.5 μM Ketoconazole overnight or 20 μM 2BP for 2 h prior to a 2.5 h NGF withdrawal in presence of the indicated compound. Cells were lysed in SDS-PAGE loading buffer and levels of endogenous DLK, phospho-cJun and tubulin were detected by Western blot.
FIG. 10B depicts quantification of phospho-cJun normalised to -NGF vehicle treated cells. Two-way ANOVA indicates significant effects of interaction (p=0.0071), NGF (p=0.0026) and Ketoconazole (p=0.0001). The effect of Ketoconazole in DRGs undergoing NGF withdrawal was also significant as determined by the Bonferroni post-test (p<0.01). Error bars represent SEM.
(In general: In western blotting, separated proteins are transferred to a membrane and probed.)

Consider `CCCCCCCCCCCCCCC(Br)C(=O)O` (centres unmarked) [2-Br, 2-Bromopalmitate], for which the “JNK3 activation (phosphorylation) by wtDLK-GFP” value in data set [1] is reported as “blocks JNK3 activation; also recorded: prevented DLK-dependent phosphorylation of JNK3”. The DLK-GFP puncta entry in data set [2] (HEK293T co-transfected with DLK-GFP plus mCherry-NLS×3) is recorded as “reduces DLK-GFP puncta”. In data set [2] (HEK293T transiently expressing DLK-GFP), the “Golgi-associated clusters of DLK-GFP” value is “diffuses the Golgi-associated clusters of DLK-GFP”. Also, the “DLK localization quantified by ImageXpress 'TransFluor' module (number of DLK-GFP puncta)” value in data set [2] (HEK293T, fixed, anti-GFP immunostained, n=5 images per condition) was “dramatically alters DLK localization”. Further, in data set [2] (HEK293T, treated 4 h post-transfection, imaged 8 h post-transfection, thresholded images), the “membrane-localized wtDLK-GFP puncta / DLK-GFP membrane association” value is given as “completely disrupted DLK-GFP membrane association; also recorded: essentially absent”. The “palmitoyl-DLK signal in ABE fractions” value in data set [3] (HEK293T transfected with wtDLK-GFP) is listed as “no ABE signal”. The “mCherry-NLS×3 expression and DAPI signal” value in data set [4] was “without affecting mCherry-NLS×3 expression or DAPI signal”.
Regarding `CC(=O)N1CCN(c2ccc(OCC3COC(Cn4ccnc4)(c4ccc(Cl)cc4Cl)O3)cc2)CC1` (centres unmarked) [Ketoconazole], the “inhibition of DLK-GFP puncta formation (puncta per total NLS), rank in Prestwick Chemical Library screen” value in data set [2] (10 micromolar final, duplicate, 16 h, 96-well) was “most potent compound to inhibit DLK-GFP puncta formation”. Moreover, the “DLK-GFP puncta (DLK puncta/NLS), dose response” value in data set [2] (HEK293T, DLK-GFP and mCherry-NLS, compound added 2 hours post-transfection for 16-18 h) is on record as “decreases DLK-GFP puncta”. Further, in data set [3] (2.5 μM or 5 μM, 2 h post-transfection for 16-18 h, n=4, ANOVA p=0.0214), the “palmitoylation of DLK (ABE)” value is recorded as “significantly reduces palmitoylation of DLK”. In addition, the “DLK palmitoylation (ABE, HAM+), dose response” value in data set [3] (HEK293T, compound 2 hours post-transfection for 16-18 h) was “inhibits DLK palmitoylation in a dose dependent manner”. Further, in data set [5], the “palmitoylation of GAP-43 (ABE)” value is given as “does not affect palmitoylation of GAP-43”. Also, the “palmitoylation of PSD-95 (ABE)” value in data set [6] is “significantly reduces palmitoylation of DLK and PSD-95”. Moreover, the “phospho-cJun normalised to -NGF vehicle treated cells” value in data set [7] is given as “significantly decreases DLK-mediated phospho-cJun activation; also recorded: significant”.
